The record followed here is patent US12427192B2, “Water soluble adjuvant and composition containing same” (Sumitomo Pharma Co., Ltd., priority 2019, dated 2025).

Test [1] has as its system HLA-A*02:01 transgenic mouse. Kind of test: Test 18: in vivo adjuvant activity, cocktail vaccine m (liposome formulation 3), IFNγ ELISPOT. Particulars: added to cocktail vaccine m (liposome formulation 3); 0.4 nmol per body, twice; FIG. 22. The method, then: (§1) Evaluation of In Vivo Adjuvant Activity in HLA-A*02:01 Transgenic Mouse
The in vivo adjuvant activity of the compound of Example 1 was evaluated in the following procedure. To a vaccine (liposome formulation 3) comprising Compound of formula 4 prepared in Reference example 8 and Peptide SEQ ID No. 3 prepared in Reference example 3 (hereinafter, referred to as “cocktail vaccine m”) was added the compound prepared in Example 1 to prepare a vaccine. The vaccine was administered to a HLA-A*02:01 transgenic mouse, and the adjuvant activity of the vaccine was evaluated by the method of testing antigen-specific CTL induction.
For example, the above liposome formulation 3 was prepared as follows. 36.7 mg of 1,2-dipalmitoyl-sn-glycero-3-phosphocholine, 7.58 mg of 1,2-dipalmitoyl-sn-glycero-3-phospho-L-serine sodium salt, and 15.47 mg of cholesterol were dissolved in t-butyl alcohol/water mixture, and the mixture was lyophilized. […]
Cocktail vaccine m was injected to mice intradermally at the tail base area in an amount for administering 500 μg of Compound of formula 4 per body and 375 μg of Peptide SEQ ID No. 3 per body. […] Then, after removal of the supernatant from the wells, stained spots on the ELISPOT plate were counted.

Test [2] relates to HLA-A*02:01 transgenic mouse. Description: Test 17: in vivo adjuvant activity, liposome formulation 2, IFNγ ELISPOT. Conditions: added to cocktail vaccine 1 (liposome formulation 2); 0.4 nmol per body, twice; FIG. 20 and 21. The method, then:
as §1
The in vivo adjuvant activity of the compound of Example 1 was evaluated in the following procedure.
To a vaccine (liposome formulation 2) comprising Compound of formula 4 prepared in Reference example 8 and Peptide SEQ ID No. 3 prepared in Reference example 3 (hereinafter, referred to as “cocktail vaccine 1”) was added the compound prepared in Example 1 to prepare a vaccine. The vaccine was administered to a HLA-A*02:01 transgenic mouse, and the adjuvant activity of the vaccine was evaluated by the method of testing antigen-specific CTL induction.
For example, the above liposome formulation 2 was prepared as follows. 42.66 mg of sphingomyelin and 15.47 mg of cholesterol were dissolved in t-butyl alcohol, and the mixture was lyophilized. […]
Cocktail vaccine 1 was injected to mice intradermally at the tail base area in an amount for administering 500 μg of Compound of formula 4 per body and 375 μg of Peptide SEQ ID No. 3 per body. […] Then, after removal of the supernatant from the wells, stained spots on the ELISPOT plate were counted.

Regarding `CCCCCNc1nc(N)nc(C)c1Cc1ccc(CN(C)CCOCCOCCOCCOCCO)cc1OC` [Example 1, 1-(4-{[2-amino-4-methyl-6-(pentylamino)pyrimidin-5-yl]methyl}-3-methoxyphenyl)-2-methyl-5,8,11,14-tetraoxa-2-azahexadecan-16-ol·trifluoroacetate], in test [1], the “CTL counts responsive to Peptide SEQ ID No. 1 compared with adding no compound” value was “more”. The “CTL counts responsive to Peptide SEQ ID No. 1 or SEQ ID No. 4 compared with adding no compound” value in test [2] is given as “more”.
